Test results reported in doi:10.1101/2024.05.02.592243v1, “Vestibular Modulation by Stimulant Derivatives in a Pentameric Ligand-Gated Ion Channel” (biorxiv, 2024).

Legend:
sTeLIC [1] = target: T1, sTeLIC (endosymbiont of Tevnia jerichonana, UniProt G2FID1); test: X-ray co-crystal structure, […] A, anomalous Br signal; type: binding; design: gene TevJSym_bc00020; homopentamer (C5); oocyte rows: sTeLIC cDNA in vector pMT3, Xenopus laevis oocytes; structures: N-terminal MBP fusion (pET20b, E. coli C43(DE3)), MBP cut off with thrombin; conditions: pH 8.0, DDM/NDG detergent, 3 mM ligand; vestibular site, open state
T1 sequence (G2FID1 1-320): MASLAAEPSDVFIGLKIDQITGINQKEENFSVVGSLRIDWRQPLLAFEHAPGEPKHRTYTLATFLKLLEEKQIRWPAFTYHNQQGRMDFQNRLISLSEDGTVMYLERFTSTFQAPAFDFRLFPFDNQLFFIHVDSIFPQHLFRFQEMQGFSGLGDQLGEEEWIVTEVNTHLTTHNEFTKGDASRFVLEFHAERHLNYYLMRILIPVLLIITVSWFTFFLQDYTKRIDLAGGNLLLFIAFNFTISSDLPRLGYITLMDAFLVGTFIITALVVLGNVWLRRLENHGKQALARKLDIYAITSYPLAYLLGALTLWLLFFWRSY

sTeLIC [2] = target: T1, sTeLIC; test: two-electrode voltage clamp, Xenopus laevis oocytes; type: cell-based; design: gene TevJSym_bc00020; homopentamer (C5); oocyte rows: sTeLIC cDNA in vector pMT3, Xenopus laevis oocytes; conditions: pH 8.5 (~EC20), 30-s coapplication, -40 mV
sTeLIC [3] = target: T1, sTeLIC; test: cryo-EM structure; type: binding; design: gene TevJSym_bc00020; homopentamer (C5); oocyte rows: sTeLIC cDNA in vector pMT3, Xenopus laevis oocytes; structures: N-terminal MBP fusion (pET20b, E. coli C43(DE3)), MBP cut off with thrombin; conditions: pH 7.5, saposin nanodisc, 2 mM FFC-8; density in vestibular site, open state

Row | Compound | X-ray co-crystal structure, 3.2 A, anomalous Br signal (sTeLIC [1]) | % modulation (sTeLIC [2]; positive allosteric modulator, vestibular site, up to 200 uM) | % modulation (sTeLIC [2]; positive modulator, micromolar concentrations) | cryo-EM structure (sTeLIC [3])
1 | C[C@H](N)Cc1ccc(Br)cc1 [BrAmp] | Anomalous signal from the bromine atom of BrAmp allowed definitive placement in the vestibular pocket | BrAmp showed positive modulatory effects similar to BrCA | – | –
2 | C[N+](C)(C)CCOP(=O)([O-])OCCC(F)(F)C(F)(F)C(F)(F)C(F)(F)C(F)(F)C(F)(F)F [FFC-8] | – | – | micromolar concentrations of FFC-8 potentiated sTeLIC currents in oocytes | This density could reasonably accommodate fluorinated fos-choline-8 (FFC-8)
